From patent US20220127584A1, “Reactive persulfides mediate sulfur respiration in mitochondria via sulfide:quinone oxidoreductase” (Bio-Xcelerator, Inc., priority 2020, published 2022) come the findings set out here.

The test system of data set [1] is fission yeast (Schizosaccharomyces pombe). Put plainly: Chronological life span of yeast. Format: cell-based. The procedure: Three single colonies derived from each strain were analyzed, as previously described^31 with slight modification. Yeast cells were cultured in SC medium (at a starting OD600 of 0.1) at 30° C. with shaking. Measurement of cell viability began after 72 h of culture (day 0) and continued every 2-3 days by plating a fraction of the culture onto a fresh YPD plate (2% glucose, 0.5% yeast extract, 1% peptone, and 2% agar) to determine the number of colony-forming units (CFUs). […] Cell survival rates were calculated by normalizing the CFUs at each time point to the CFUs at day 0.

For the next data set, the system named is WT and Sqrdl^ΔN/ΔN MEFs. As to the kind of experiment: MEF mitochondrial membrane potential (JC-1 staining). The data set is classed as cell-based, mouse. How it is done: To determine the membrane potential of mitochondria under several experimental conditions, JC-1 staining was performed according to the method previously reported ^37,38. Accumulation of the cell-permeable JC-1 probe (Abcam) in mitochondria depends on the membrane potential and is associated with a fluorescence emission shift from green (emission 527 nm) to red (emission 590 nm). Briefly, WT and Sqrdl^ΔN/ΔN MEFs, cultured in 8-well multichamber slides (Matsunami, Osaka, Japan) coated with collagen, were treated with mitochondrial ETC inhibitors (rotenone, atpenin A5, and antimycin A) the and ADP/ATP carrier inhibitor CATR^23 as described in the figure legends. For JC-1 staining, cultured cells were washed with HKRB buffer (20 mM HEPES, 103 mM NaCl, 4.77 mM KCl, 0.5 mM CaCl2, 1.2 mM MgCl2, 1.2 mM KH2PO4, 25 mM NaHCO3, and 15 mM glucose, pH 7.3), incubated with 20 μM JC-1 at 37° C. for 20 min, rinsed twice with HKRB buffer, and examined with a confocal laser scanning microscope (Nikon C2 plus, with NIS-Elements 5.01 software). ImageJ software was used for image processing and calculation of JC-1 fluorescence intensities.

The test system of data set [2] is mitochondria from WT and Sqrdl^ΔN/ΔN MEFs. Put plainly: Membrane potential of isolated mitochondria (TMRE time-lapse imaging). Further details: species or system mouse. To be noted: for membrane potential of isolated mitochondria: supplementation to isolated MEF mitochondria. How it is done: MEF mitochondria were isolated by differential centrifugation. WT and Sqrdl^ΔN/ΔN MEFs were homogenized in the extraction buffer (10 mM Tris-HCl, 250 mM sucrose, and 0.5 mM EGTA, pH 7.4) with a Dounce homogenizer (Teflon glass) and were centrifuged at 2,000 g at 4° C. for 5 min to remove nuclei and cell debris. The supernatants were centrifuged at 12,000 g at 4° C. for 10 min, and mitochondrial pellets were washed three times with buffer and kept at −80° C. until use.
To determine the membrane potential in isolated mitochondria under several experimental conditions, TMRE staining was performed according to the method previously reported^40. The TMRE fluorescence intensity at a maximum emission of 574 nm depends on the mitochondrial membrane potential. Briefly, mitochondria from WT and Sqrdl^ΔN/ΔN MEFs were adsorbed on the bottom of 8-well μ-Slides (Ibidi, Martinsreid, Germany) coated with poly-D-lysine (Sigma-Aldrich, St. Luis, Mo., USA), after which they were stained with 10 nM TMRE (Biotium, Fremont, Calif., USA) and 50 nM MitoTracker Green FM (Thermo Fisher Scientific, Waltham, Mass., USA) at 25° C. for 10 min. TMRE fluorescence intensity (561 nm excitation and 605±15 nm emission), which is positive with MitoTracker Green FM fluorescence, was measured in individual mitochondria by using the region of interest (ROI) tool of the confocal laser scanning microscope (Nikon C2 plus, with NIS elements version 5.01 software). […] Specifically, of 200 ROIs, the top 30 ROIs were selected for analysis of TMRE fluorescence intensity in response to TMPD/ascorbate, and their means and s.d. values were calculated.

Data set [3] deals with mitochondria isolated from livers of WT and Sqrdl^ΔN/ΔN mice. Put plainly: Oxygen consumption of liver mitochondria (Clark-type electrode). Also noted: species or system mouse. The settings on record: 10-μM NaHS supply. How it is done: Mitochondria were isolated from 4- to 6-week-old mice by using two-step differential centrifugations, as previously described^41 with minor modifications. In brief, after gallbladder removal, fresh liver specimens weighing 1.0-1.5 g were minced and homogenized in ice-cold isolation buffer (10 mM Tris/MOPS, 1 mM EGTA/Tris, and 200 mM sucrose, pH 7.4). When liver weight was less than 1 g, livers were pooled. Homogenate were centrifuged at 600 g and 4° C. for 10 min to remove cellular debris and nuclei. Supernatants containing mitochondrial fraction were then centrifuged at 7,000 g at 4° C. for 10 min. Obtained mitochondrial pellets were washed with new isolation buffer and underwent centrifugation again (7,000 g for 10 min). […] The protein concentration was determined with the BCA Protein Assay Kit (Thermo Fisher Scientific). Absorbance at 562 nm was measured with NanoDrop 2000 (Thermo Fisher Scientific).
Mitochondrial oxygen consumption was measured by using a Clark-type electrode (Oxytherm system; Hansatech Instruments, Norfolk, UK). […] The OCR through complex I was measured as a mitochondrial basic function by sequentially adding 2.5 mM malate/5 mM glutamate, 150 μM ADP, and 100 nM carbonyl cyanide 4-(trifluoromethoxy) phenylhydrazone (FCCP). The respiratory control index (RCI) was calculated by using the ratio of state 3 to state 4. […]

In data set [4] the test system is isolated mitochondria from WT and Sqrdl^ΔN/ΔN MEFs. Put plainly: Quantification of sulfur metabolites in isolated mitochondria (LC-ESI-MS/MS). To be noted: addition to isolated mitochondria. Further details: species or system mouse. How it is done:
Yeast, mouse tissues, and MEFs were analyzed for the low-molecular-weight analytes cysteine (CysSH), cysteine hydropersulfide (CysSSH), glutathione (GSH), glutathione hydropersulfide (GSSH), bis-S (H2S), bis-SS (HSSH), cystine (CysSSCys), oxidized glutathione, or glutathione disulfide (GSSG), oxidized glutathione trisulfide (GSSSG), and thiosulfate (HS2O3^−) as previously described^9. Briefly, samples were homogenized with a Psychotron homogenizer (Microtec Co. Ltd.) or sonicator in ice-cold methanol in the presence of 5 mM β-(4-hydroxyphenyl)ethyl iodoacetamide (HPE-IAM). Homogenates were incubated at 37° C. for 20 min and then centrifuged at 15,000 rpm at 4° C. for 10 min. Supernatants were separated and diluted 10 times with 0.1% formic acid. Stable isotope-labeled internal standards dissolved in 0.1% formic acid solution were added to the samples to a final concentration of 25 nM. A sample of 10 μl was injected into the LC-ESI-MS/MS instrument (LCMS-8060). Various persulfide derivatives were identified and quantified by means of MRM, as previously described^9. Cell pellets were reconstituted in 0.1% SDS in PBS buffer, homogenized by sonication, and centrifuged again at 15,000 rpm at 4° C. for 10 min. […] Each analyte concentration was normalized to the measured protein concentration. […]

The test system of data set [5] is fission yeast (Schizosaccharomyces pombe). The data set is classed as cell-based. To be noted: SQR-deficient yeast (Δhmt2) compared with WT yeast; increasing/high concentrations.
Setting [6] is: WT MEFs, increasing concentrations in the culture media, SQR-dependent.

For the compound `[Na+].[Na+].[S-][S-]` [Na2S2, sodium disulfide], the chronological lifespan result was “no effect” in data set [1] (SQR-deficient yeast) and “extended the lifespan” in data set [1] (WT yeast). In addition, in the data set with WT and Sqrdl^ΔN/ΔN MEFs (setting [6]), the mitochondrial membrane potential result is reported as “elevation of membrane potential”. Besides, in data set [2], the “membrane potential of isolated mitochondria” value was “results that were quite similar to those induced by NaHS”.
Regarding `C=C1[C@@H]2CC[C@H]3[C@]4(C)C[C@H](O[C@@H]5O[C@H](CO)[C@@H](OS(=O)(=O)O)[C@H](OS(=O)(=O)O)[C@H]5OC(=O)CC(C)C)CC(C(=O)O)(C(=O)O)[C@H]4CC[C@]3(C2)[C@H]1O` [CATR, carboxyatractyloside], the mitochondrial membrane potential result in the data set with WT and Sqrdl^ΔN/ΔN MEFs (Sqrdl^ΔN/ΔN MEFs, CATR treatment) is listed as “did not observe this increase”; with WT and Sqrdl^ΔN/ΔN MEFs (WT MEFs, CATR treatment), “increased the membrane potential”.
For the compound `S` [NaHS, sodium hydrosulfide], the chronological lifespan entry is reported as “no effect” in data set [1] (SQR-deficient yeast) and “extended the lifespan” in data set [1] (WT yeast). For the same compound, the mitochondrial membrane potential result in the data set with WT and Sqrdl^ΔN/ΔN MEFs (setting [6]) is “elevation of membrane potential”. In data set [2] (3 μM NaHS, isolated mitochondria), the “membrane potential response to succinate, malate, and glutamate and to TMPD with ascorbate” value was “retained the membrane potential response”. Also, the “concentration at which the membrane potential response was halted” value in data set [2] (isolated mitochondria, data not shown) is listed as “more than 30 μM”. For the same compound, in data set [2], the “membrane potential of isolated mitochondria” value was “generated the membrane potential in an SQR-dependent manner”. In addition, in data set [3], the oxygen consumption result is reported as “induced a small oxygen consumption only in WT mitochondria”.
For the compound `C=C(C)[C@H]1Cc2c(ccc3c2O[C@@H]2COc4cc(OC)c(OC)cc4[C@@H]2C3=O)O1` [rotenone], the “effect on CATR-induced increase in membrane potential” value with WT and Sqrdl^ΔN/ΔN MEFs (WT MEFs) is on record as “not significantly affected”.
Take `N[C@@H](CCC(=O)N[C@@H](CSSSC[C@H](NC(=O)CC[C@H](N)C(=O)O)C(=O)NCC(=O)O)C(=O)NCC(=O)O)C(=O)O` [GSSSG, glutathione trisulfide]: the “membrane potential of isolated mitochondria” value in data set [2] is listed as “increased the membrane potential”. Further, the “levels of glutathione hydropersulfide (GSSH)” value in data set [4] is “increased levels of glutathione hydropersulfide (GSSH)”.
Take antimycin A: the “effect on CATR-induced increase in membrane potential” value in the data set on WT and Sqrdl^ΔN/ΔN MEFs (WT MEFs) is recorded as “reduced”.
The same measure, in the same setting: for `COc1[nH]c(=O)c(C(=O)[C@@H](C)C[C@H](C)[C@@H](Cl)CCl)c(O)c1OC` [atpenin A5] the value was “not significantly affected”.
With `[Cl][Cd][Cl]` [Cd, CdCl2], the “susceptibility of yeast growth to the substance” value in data set [5] is recorded as “enhanced susceptibility to Cd toxicity”.
Consider `N[C@@H](CSSC[C@H](N)C(=O)O)C(=O)O` [cystine], for which the mitochondrial membrane potential entry with WT and Sqrdl^ΔN/ΔN MEFs (setting [6]) is on record as “elevation of membrane potential”.
